Experimental data as given in patent US11634390B2, “Agricultural chemicals” (GLOBACHEM NV, priority 2016, dated 2023).
Counter-ions that a name gives are not always drawn.

Assays:
Assay type in all cases: in vivo
Design in all cases: key to percentage increase in necrosis relative to the control: no detected effect at this concentration; a percentage increase in necrosis relative to the control of 0.1-50; b: a percentage increase in necrosis of 50-80; a percentage increase in necrosis of 80-100
[1] = system: Amaranthus retroflexus; test: Herbicidal screen, post-emergence spray of seedlings in pots: common amaranthus; details: assessed 10 days after treatment; for pest or weed control at 12.5 g/ha / pest or weed control at 25 g/ha / pest or weed control at 50 g/ha / pest or weed control at 100 g/ha: Amaranthus retroflexus, post-emergence, 240 h, read-out: percentage increase in necrosis relative to the control
Experimental: (§1) Compounds were screened at four concentrations (100, 50, 25 and 12.5 g/ha) against four weed species (Stellaria media—Chickweed; Abutilon theophrasti—velvetleaf; Amaranthus retroflexus—common amaranthus; Echinochloa crus-galli—Barnyard grass) and maize as a crop species. Seed were sown in 12.5 cm diameter pots (20 per pot for the weed species and 5 for maize). Seedlings were sprayed with 2 ml of compound two weeks after sowing, with 2 ml water used as the control. Each treatment was replicated three times. Plants were maintained at 20° C. and assessed 10 days after treatment. The assessment was based on the % plant in each pot showing growth. The data is presented in Table 1 in which d represents no detected effect at this concentration; c represents a percentage increase in necrosis relative to the control of 0.1-50; b represents a percentage increase in necrosis of 50-80; and a represents a percentage increase in necrosis of 80-100.

[2] = system: maize; test: Herbicidal screen, post-emergence spray of seedlings in pots: crop species; details: assessed 10 days after treatment; for plant injury at 12.5 g/ha / plant injury at 25 g/ha / plant injury at 50 g/ha / plant injury at 100 g/ha: Zea mays, post-emergence, 240 h, read-out: percentage increase in necrosis relative to the control
Experimental: as §1

[3] = system: Abutilon theophrasti; test: Herbicidal screen, post-emergence spray of seedlings in pots: velvetleaf; details: assessed 10 days after treatment; for pest or weed control at 12.5 g/ha / pest or weed control at 25 g/ha / pest or weed control at 50 g/ha / pest or weed control at 100 g/ha: Abutilon theophrasti, post-emergence, 240 h, read-out: percentage increase in necrosis relative to the control
Experimental: as §1

[4] = system: Echinochloa crus-galli; test: Herbicidal screen, post-emergence spray of seedlings in pots: Barnyard grass; details: assessed 10 days after treatment; for pest or weed control at 12.5 g/ha / pest or weed control at 25 g/ha / pest or weed control at 50 g/ha / pest or weed control at 100 g/ha: Echinochloa crus-galli, post-emergence, 240 h, read-out: percentage increase in necrosis relative to the control
Experimental: as §1

[5] = system: Stellaria media; test: Herbicidal screen, post-emergence spray of seedlings in pots: Chickweed; details: assessed 10 days after treatment; for pest or weed control at 12.5 g/ha / pest or weed control at 25 g/ha / pest or weed control at 50 g/ha / pest or weed control at 100 g/ha: Stellaria media, post-emergence, 240 h, read-out: percentage increase in necrosis relative to the control
Experimental: as §1

SMILES	pest or weed control at 12.5 g/ha ([1]; 12.5 g/ha)	pest or weed control at 25 g/ha ([1]; 25 g/ha)	pest or weed control at 50 g/ha [1]	pest or weed control at 100 g/ha [1]	plant injury at 12.5 g/ha ([2]; 12.5 g/ha)	plant injury at 25 g/ha ([2]; 25 g/ha)	plant injury at 50 g/ha [2]	plant injury at 100 g/ha [2]	pest or weed control at 12.5 g/ha ([3]; 12.5 g/ha)	pest or weed control at 25 g/ha [3]	pest or weed control at 50 g/ha [3]	pest or weed control at 100 g/ha [3]	pest or weed control at 12.5 g/ha ([4]; 12.5 g/ha)	pest or weed control at 25 g/ha ([4]; 25 g/ha)	pest or weed control at 50 g/ha [4]	pest or weed control at 100 g/ha [4]	pest or weed control at 12.5 g/ha ([5]; 12.5 g/ha)	pest or weed control at 25 g/ha ([5]; 25 g/ha)	pest or weed control at 50 g/ha ([5]; 50 g/ha)	pest or weed control at 100 g/ha [5]	further results
Cn1c(C(F)(F)F)cc(=O)n(-c2cc(C(=O)NS(=O)(=O)C3CC3)c(F)cc2F)c1=O [Example 8, N-(Cyclopropylsulfonyl)-2,4-difluoro-5-(3-methyl-2,6-dioxo-4-(trifluoromethyl)-3,6-dihydropyrimidin-1(2H)-yl)benzamide]	0.1 to 50%	0.1 to 50%	80 to 100%	80 to 100%	0.1 to 50%	0.1 to 50%	0.1 to 50%	0.1 to 50%	0.1 to 50%	0.1 to 50%	50 to 80%	50 to 80%	0.1 to 50%	0.1 to 50%	50 to 80%	50 to 80%	0.1 to 50%	0.1 to 50%	0.1 to 50%	50 to 80%	
Cn1c(C(F)(F)F)cc(=O)n(-c2cc(C(=O)NS(=O)(=O)C3CCOCC3)c(Cl)cc2F)c1=O [Example 1, 2-Chloro-4-fluoro-5-(3-methyl-2,6-dioxo-4-(trifluoromethyl)-3,6-dihydropyrimidin-1(2H)-yl)-N-((tetrahydro-2H-pyran-4-yl)sulfonyl)benzamide]	0.1 to 50%	50 to 80%	50 to 80%	80 to 100%	0.1 to 50%	0.1 to 50%	0.1 to 50%	0.1 to 50%	0.1 to 50%	50 to 80%	50 to 80%	50 to 80%	0.1 to 50%	0.1 to 50%	0.1 to 50%	0.1 to 50%	0.1 to 50%	0.1 to 50%	0.1 to 50%	0.1 to 50%	
Cn1c(C(F)(F)F)cc(=O)n(-c2cc(C(=O)NS(=O)(=O)C3CCS(=O)(=O)C3)c(Cl)cc2F)c1=O (stereo not drawn) [Example 10, 2-Chloro-N-((1,1-dioxidotetrahydrothiophen-3-yl)sulfonyl)-4-fluoro-5-(3-methyl-2,6-dioxo-4-(trifluoromethyl)-3,6-dihydropyrimidin-1(2H)-yl)benzamide]	50 to 80%	50 to 80%	50 to 80%	50 to 80%	0.1 to 50%	0.1 to 50%	0.1 to 50%	0.1 to 50%	0.1 to 50%	0.1 to 50%	0.1 to 50%	0.1 to 50%	0.1 to 50%	0.1 to 50%	0.1 to 50%	0.1 to 50%	0.1 to 50%	0.1 to 50%	0.1 to 50%	0.1 to 50%	
Cn1c(C(F)(F)F)cc(=O)n(-c2cc(C(=O)NS(=O)(=O)C3CNC3)c(Cl)cc2F)c1=O [Example 6, N-(Azetidin-3-ylsulfonyl)-2-chloro-4-fluoro-5-(3-methyl-2,6-dioxo-4-(trifluoromethyl)-3,6-dihydropyrimidin-1(2H)-yl)benzamide hydrochloride]	50 to 80%	50 to 80%	80 to 100%	80 to 100%	0.1 to 50%	0.1 to 50%	0.1 to 50%	0.1 to 50%	0.1 to 50%	0.1 to 50%	50 to 80%	50 to 80%	0.1 to 50%	0.1 to 50%	0.1 to 50%	0.1 to 50%	0.1 to 50%	0.1 to 50%	0.1 to 50%	50 to 80%	
Cn1c(C(F)(F)F)cc(=O)n(-c2cc(C(=O)NS(=O)(=O)C3CCNC3)c(Cl)cc2F)c1=O (stereo not drawn) [Example 4, 2-Chloro-4-fluoro-5-(3-methyl-2,6-dioxo-4-(trifluoromethyl)-3,6-dihydropyrimidin-1(2H)-yl)-N-(pyrrolidin-3-ylsulfonyl)benzamide hydrochloride]	50 to 80%	50 to 80%	80 to 100%	80 to 100%	0.1 to 50%	0.1 to 50%	0.1 to 50%	0.1 to 50%	0.1 to 50%	0.1 to 50%	0.1 to 50%	50 to 80%	0.1 to 50%	0.1 to 50%	0.1 to 50%	0.1 to 50%	0.1 to 50%	0.1 to 50%	0.1 to 50%	50 to 80%	
Cn1c(C(F)(F)F)cc(=O)n(-c2cc(C(=O)NS(=O)(=O)C3CC3)ccc2F)c1=O [Example 15, N-(Cyclopropylsulfonyl)-4-fluoro-3-(3-methyl-2,6-dioxo-4-(trifluoromethyl)-3,6-dihydropyrimidin-1(2H)-yl)benzamide]			50 to 80%	50 to 80%			0.1 to 50%	0.1 to 50%		0.1 to 50%	50 to 80%	50 to 80%			0.1 to 50%	0.1 to 50%				0.1 to 50%	percentage increase in necrosis relative to the control ([1]; 12.5 g/ha): d; percentage increase in necrosis relative to the control ([1]; 25 g/ha): d; percentage increase in necrosis relative to the control ([2]; 12.5 g/ha): d; percentage increase in necrosis relative to the control ([2]; 25 g/ha): d; percentage increase in necrosis relative to the control ([3]; 12.5 g/ha): d; percentage increase in necrosis relative to the control ([4]; 12.5 g/ha): d; percentage increase in necrosis relative to the control ([4]; 25 g/ha): d; percentage increase in necrosis relative to the control ([5]; 12.5 g/ha): d; percentage increase in necrosis relative to the control ([5]; 25 g/ha): d; percentage increase in necrosis relative to the control ([5]; 50 g/ha): d
